Measurements as given in ChEMBL document CHEMBL1201862, “PubChem BioAssay data set” (2004).
The source made the active and inactive calls.

Experiments:
[1] = target: T1, Nuclear receptor subfamily 0 group B member 1 (Homo sapiens, UniProt P51843); assay: Luminescence-based cell-based high throughput dose response assay for inhibitors of the orphan nuclear receptor subfamily 0, group B, member 1 (DAX1; NR0B1). [Related pubchem assays (depositor defined):AID504766, AID504790]; format: functional
T1 sequence (P51843 whole entry): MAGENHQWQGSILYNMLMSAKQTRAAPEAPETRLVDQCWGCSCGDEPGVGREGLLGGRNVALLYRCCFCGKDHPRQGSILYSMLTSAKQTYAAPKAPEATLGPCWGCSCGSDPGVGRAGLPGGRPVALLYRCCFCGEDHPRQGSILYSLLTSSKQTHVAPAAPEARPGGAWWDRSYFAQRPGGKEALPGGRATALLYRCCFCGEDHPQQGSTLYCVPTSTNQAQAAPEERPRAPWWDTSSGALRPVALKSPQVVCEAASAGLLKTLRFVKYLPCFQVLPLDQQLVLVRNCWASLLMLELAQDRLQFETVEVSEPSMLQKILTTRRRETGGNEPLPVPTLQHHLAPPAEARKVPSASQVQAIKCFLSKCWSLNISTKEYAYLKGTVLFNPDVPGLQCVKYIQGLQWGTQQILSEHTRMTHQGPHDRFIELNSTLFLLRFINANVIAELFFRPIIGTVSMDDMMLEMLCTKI

[2] = Counterscreen for IDE inhibitors: Luminescence-based cell-based high throughput dose response assay to identify compounds that are cytotoxic to HEK cells. [Related pubchem assays: 434962 (Primary screen (IDE inhibitors in singlicate)), 449730 (Counterscreen (Cytotoxicity in triplicate)), 435028 (Confirmation (IDE inhibitors in triplicate)) …; format: functional; settings: HEK293
[3] = target: T2, RNA-binding protein pos-1 (Caenorhabditis elegans, UniProt G5EF15); assay: inhibitors of POS-1/mex-3 RNA binding, dose response, biochemical, fluorescence polarization (AID 1964);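 further: purified POS-1 fused to maltose binding protein made in E. coli; potency of compounds blocking POS-1 binding to fluorescent RNA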
T2 sequence (G5EF15 whole entry): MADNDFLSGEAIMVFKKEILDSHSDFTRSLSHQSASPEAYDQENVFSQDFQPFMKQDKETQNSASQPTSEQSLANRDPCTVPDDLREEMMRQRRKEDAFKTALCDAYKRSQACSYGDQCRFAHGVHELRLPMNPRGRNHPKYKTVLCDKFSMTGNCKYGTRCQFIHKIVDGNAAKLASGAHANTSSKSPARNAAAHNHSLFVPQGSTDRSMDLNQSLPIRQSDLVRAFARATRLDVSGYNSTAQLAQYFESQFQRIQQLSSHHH

HEK293 [4] = assay: cells; format: functional, cell-based; settings: Homo sapiens
[5] = enhancers of respiration in Yfh1-depleted yeast, dose response, Friedreich's ataxia, plus single-dose screen (AID 1465); format: functional;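 further: yeast depleted of Yfh1p frataxin homolog grown on glycerol needing respiration; WST-1 tetrazolium dye reduction as measure of cellular dehydrogenase metabolic activity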
Insulin-degrading enzyme = target: T3, Insulin-degrading enzyme (Homo sapiens, UniProt P14735); assay: Dose Response: Fluorescence polarization-based cell-based high throughput dose response assay for inhibitors of insulin-degrading enzyme (IDE). [Related pubchem assays: 434962 (Primary screen (IDE inhibitors in singlicate)), 449730 (Counterscreen (Cytotoxicity in triplicate)), 435028 (Confirmation (IDE inhibitors in triplicate)), 434984 (Summary …; format: functional
T3 sequence (P14735 whole entry): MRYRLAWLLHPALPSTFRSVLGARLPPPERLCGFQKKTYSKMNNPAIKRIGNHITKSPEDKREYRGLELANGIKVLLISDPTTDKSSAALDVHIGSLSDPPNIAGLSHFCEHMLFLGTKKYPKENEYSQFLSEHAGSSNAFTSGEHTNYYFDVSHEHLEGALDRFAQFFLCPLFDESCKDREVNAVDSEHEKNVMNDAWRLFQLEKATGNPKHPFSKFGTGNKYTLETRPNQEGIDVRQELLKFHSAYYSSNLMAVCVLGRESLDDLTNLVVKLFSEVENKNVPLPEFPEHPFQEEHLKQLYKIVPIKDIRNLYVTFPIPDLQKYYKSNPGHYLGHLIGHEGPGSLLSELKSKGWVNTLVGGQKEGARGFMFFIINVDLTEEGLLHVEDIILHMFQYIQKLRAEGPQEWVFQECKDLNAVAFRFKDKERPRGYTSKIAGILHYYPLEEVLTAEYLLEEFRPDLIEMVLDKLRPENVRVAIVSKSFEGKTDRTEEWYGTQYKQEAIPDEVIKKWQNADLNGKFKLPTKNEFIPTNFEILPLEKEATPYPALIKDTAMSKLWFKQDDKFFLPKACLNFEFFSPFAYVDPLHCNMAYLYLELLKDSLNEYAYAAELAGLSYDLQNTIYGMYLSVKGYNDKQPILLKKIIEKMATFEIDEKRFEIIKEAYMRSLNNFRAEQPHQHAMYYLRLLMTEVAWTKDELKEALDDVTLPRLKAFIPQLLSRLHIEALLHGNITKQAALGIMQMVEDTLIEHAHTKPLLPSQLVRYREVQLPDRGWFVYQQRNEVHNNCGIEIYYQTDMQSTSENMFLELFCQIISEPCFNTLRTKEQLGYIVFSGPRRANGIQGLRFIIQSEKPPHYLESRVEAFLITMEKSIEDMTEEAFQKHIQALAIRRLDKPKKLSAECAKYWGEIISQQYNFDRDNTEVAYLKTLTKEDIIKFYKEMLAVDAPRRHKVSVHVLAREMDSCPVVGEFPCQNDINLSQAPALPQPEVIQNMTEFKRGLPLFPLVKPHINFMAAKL

HEK293 [6] = assay: Fluorescence-based counterscreen for potentiators or agonists of NPY-Y2: cell-based high-throughput dose response assay to identify inhibitors of cyclic nucleotide gated ion channel (CNGC) activity. In this assay, the parental HEK293 cell line transfected with a cyclic-nucleotide gated ion channel (CNGC)-based cAMP sensor is used to measure inhibition of isoproterenol-induced CNGC activity by test compound.; format: functional; settings: Homo sapiens
[7] = target: T4, Neuropeptide Y receptor type 2 (Homo sapiens, UniProt P49146); assay: Fluorescence-based cell-based high-throughput dose response assay for agonists of NPY-Y2. [Related pubchem assays: 1703 (Screening assay (CNGC inhibitors).), 1359 (Screening assay (NPY-Y2 potentiators or agonists).), 1304 (Screening assay (NPY-Y1 potentiators or agonists).), 1710 (Screening assay (NPY-Y2 agonists).), 1791 (Summary AID.)]; format: functional
T4 sequence (P49146 whole entry): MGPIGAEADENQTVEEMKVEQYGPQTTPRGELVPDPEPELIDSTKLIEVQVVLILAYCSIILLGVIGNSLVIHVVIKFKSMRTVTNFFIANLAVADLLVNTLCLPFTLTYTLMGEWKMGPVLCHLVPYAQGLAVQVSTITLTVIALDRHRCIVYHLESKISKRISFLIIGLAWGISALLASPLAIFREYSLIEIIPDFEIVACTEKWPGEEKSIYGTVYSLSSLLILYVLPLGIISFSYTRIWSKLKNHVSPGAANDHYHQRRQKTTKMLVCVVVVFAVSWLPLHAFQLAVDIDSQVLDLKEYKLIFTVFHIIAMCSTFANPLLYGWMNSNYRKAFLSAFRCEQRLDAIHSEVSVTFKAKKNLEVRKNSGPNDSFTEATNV

[8] = target: T5, Neuropeptide Y receptor type 1 (Homo sapiens, UniProt P25929); assay: Fluorescence-based counterscreen for agonists of NPY-Y2: cell-based high-throughput dose response assay for agonists of NPY-Y1.; format: functional
T5 sequence (P25929 whole entry): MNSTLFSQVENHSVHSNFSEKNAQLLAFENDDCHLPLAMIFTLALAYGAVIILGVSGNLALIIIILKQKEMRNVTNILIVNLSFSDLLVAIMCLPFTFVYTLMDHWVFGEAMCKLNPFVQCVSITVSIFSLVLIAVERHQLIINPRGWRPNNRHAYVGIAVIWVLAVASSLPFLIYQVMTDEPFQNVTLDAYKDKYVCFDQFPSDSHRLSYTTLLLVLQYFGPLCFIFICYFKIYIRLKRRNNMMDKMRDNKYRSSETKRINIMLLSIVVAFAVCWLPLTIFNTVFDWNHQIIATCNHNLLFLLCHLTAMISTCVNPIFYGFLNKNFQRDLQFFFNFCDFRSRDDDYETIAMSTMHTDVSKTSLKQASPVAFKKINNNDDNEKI

SMILES | IC50 [1] | IC50 [2] | EC50 [3] | IC50 (HEK293 [4]) | EC50 [5] | IC50 (Insulin-degrading enzyme) | EC50 (HEK293 [6]) | EC50 [7] | EC50 [8]
CCN(CC)c1ccc(/C=C2\C(=O)NC(=S)N(C)C2=O)o1 | > 67.6 µM (inactive) | > 55.7 µM (not active) | > 300 µM (inconclusive) | > 67.6 µM (inactive) | > 100 µM (active) | 14 µM (not active) | – | – | –
COC(=O)/C(=C/c1cn(C(C)=O)c2ccccc12)[N+](=O)[O-] | – | – | – | – | – | – | 12.3 µM (not active) | > 35.4 µM (not active) | > 35.4 µM (not active)
